Assay results: ChEMBL document CHEMBL1141099, “Discovery of N-(2,6-dimethylphenyl)-substituted semicarbazones as anticonvulsants: hybrid pharmacophore-based design” (2005)
The source made the active and inactive calls. No cut-off for these calls is given here.

Tests used:
Mus musculus [1] = assay: Minimum dose required for anticonvulsant activity when given i.p., at 0.5 hr in mice upon neurotoxicity seizure using rotarod test; type: functional
Mus musculus [2] = assay: Minimum dose required for anticonvulsant activity when given i.p., at 4 hr in mice upon maximal electroshock seizure; type: functional
Rattus norvegicus [3] = assay: Number of rats protected at a dose of 30 mg/Kg when given oral at 0.5 hr upon maximal electroshock seizure; Total number of rats = 4; type: functional
Rattus norvegicus [4] = assay: Number of rats protected at a dose of 30 mg/Kg when given oral at 1 hr upon maximal electroshock seizure; Total number of rats = 4; type: functional
Rattus norvegicus [5] = assay: Number of rats protected at a dose of 30 mg/Kg when given oral at 2 hr upon maximal electroshock seizure; Total number of rats = 4; type: functional
Mus musculus [6] = assay: Minimum dose required for anticonvulsant activity when given i.p., at 0.5 hr in mice upon subcutaneous pentylenetetrazole seizure; type: functional
Mus musculus [7] = assay: Minimum dose required for anticonvulsant activity when given i.p., at 0.5 hr in mice upon subcutaneous strychnine seizure; type: functional
Mus musculus [8] = assay: Post treatment activity score for CNS study using a actophotometer at a dose of 100 mg/Kg after 0.5 hr when given i.p., in mice (No. of animals 6); Control (24h before) 280
Rattus norvegicus [9] = assay: Number of rats protected at a dose of 30 mg/Kg when given oral at 0.25 hr upon maximal electroshock seizure; Total number of rats = 4; type: functional
Rattus norvegicus [10] = assay: Number of rats protected at a dose of 30 mg/Kg when given oral at 4 hr upon maximal electroshock seizure; Total number of rats = 4; type: functional
Mus musculus [11] = assay: Minimum dose required for anticonvulsant activity when given i.p., at 0.5 hr in mice upon maximal electroshock seizure; type: functional
Mus musculus [12] = assay: Minimum dose required for anticonvulsant activity when given i.p., at 2 hr in mice upon subcutaneous strychnine seizure; type: functional
Mus musculus [13] = assay: Post treatment activity score for CNS study using a actophotometer at a dose of 100 mg/Kg after 1 hr when given i.p., in mice (No. of animals 6); Control (24h before) 280
Rattus norvegicus [14] = assay: Toxic dose observed for anticonvulsant activity when given orally at 4 h in rat upon neurotoxicity seizure; type: functional; details: po
Mus musculus [15] = assay: Post treatment activity score for CNS study using a actophotometer at a dose of 100 mg/Kg after 0.5 hr when given i.p., in mice (No. of animals 6); Control (24h before) 224
Rattus norvegicus [16] = assay: Enzymatic activity to assess the increase in level of SGOT at a dose of 30 mg/Kg for 14 days when given p.o., in 6 rats; Control 73.1; type: functional
Mus musculus [17] = assay: Mean sleeping time evaluated for CNS study using the pentobarbital-induced narcosis model at a dose of 100 mg/Kg when given i.p., in mice (No. of animals 6)
Rattus norvegicus [18] = species on record: Rattus norvegicus; assay: Protective index between effective dose and toxic dose in rat; type: functional
Rattus norvegicus [19] = assay: Effective dose required for anticonvulsant activity when given orally at 4 h in rat upon maximal electroshock seizure; type: functional; details: po
Rattus norvegicus [20] = assay: Enzymatic activity to assess the increase in level of SGPT at a dose of 30 mg/Kg for 14 days when given p.o., in 6 rats; Control 45.0; type: functional
Mus musculus [21] = assay: Post treatment immobility time for CNS study using Porsolt's swimpool test at a dose of 100 mg/Kg after 1 hr when given i.p., in mice (No. of animals 6); Control (24h before) 176
Mus musculus [22] = assay: Post treatment activity score for CNS study using a actophotometer at a dose of 100 mg/Kg after 1 hr when given i.p., in mice (No. of animals 6); Control (24h before) 224
Mus musculus [23] = assay: Post treatment activity score for CNS study using a actophotometer at a dose of 100 mg/Kg after 0.5 hr when given i.p., in mice (No. of animals 6); Control (24h before) 270
Mus musculus [24] = assay: Post treatment activity score for CNS study using a actophotometer at a dose of 100 mg/Kg after 1 hr when given i.p., in mice (No. of animals 6); Control (24h before) 270
Rattus norvegicus [25] = assay: Toxic dose observed for anticonvulsant activity when given orally at 2 hr in rat upon neurotoxicity seizure; type: functional; details: po
Mus musculus [26] = assay: Post treatment activity score for CNS study using a actophotometer at a dose of 100 mg/Kg after 0.5 hr when given i.p., in mice (No. of animals 6); Control (24h before) 214
Mus musculus [27] = assay: Minimum dose required for anticonvulsant activity when given i.p., in mice upon neurotoxicity seizure using rotarod test
Mus musculus [28] = assay: Post treatment immobility time for CNS study using Porsolt's swimpool test at a dose of 100 mg/Kg after 1 hr when given i.p., in mice (No. of animals 6); Control (24h before) 159
Rattus norvegicus [29] = assay: Effective dose required for anticonvulsant activity when given orally at 2 h in rat upon maximal electroshock seizure; type: functional; details: po
Mus musculus [30] = assay: Post treatment activity score for CNS study using a actophotometer at a dose of 100 mg/Kg after 1 h when given i.p., in mice (No. of animals 6); Control (24h before) 214
Mus musculus [31] = assay: Post treatment activity score for CNS study using a actophotometer at a dose of 100 mg/Kg after 0.5 hr when given i.p., in mice (No. of animals 6); Control (24h before) 247
Rattus norvegicus [32] = assay: Minimum dose required for anticonvulsant activity when given i.p., in mice upon subcutaneous picrotoxin seizure; Absence of activity; type: functional, organism-based; details: Mus musculus
Rattus norvegicus [33] = assay: Minimum dose required for anticonvulsant activity when given i.p., at 0.5 hr in mice upon subcutaneous pentylenetetrazole seizure; Absence of activity; type: functional, organism-based; details: Mus musculus
Rattus norvegicus [34] = assay: Effective dose required for anticonvulsant activity when given i.p., at 2 hr in rat upon maximal electroshock seizure; type: functional; details: ip
Rattus norvegicus [35] = assay: Minimum dose required for anticonvulsant activity when given i.p., at 2 hr in mice upon subcutaneous strychnine seizure; Absence of activity; type: functional, organism-based; details: Mus musculus
Rattus norvegicus [36] = assay: Toxic dose observed for anticonvulsant activity when given i.p., at 2 hr in rat upon neurotoxicity seizure; type: functional; details: ip
Mus musculus [37] = assay: Post treatment activity score for CNS study using a actophotometer at a dose of 100 mg/Kg after 1 hr when given i.p., in mice (No. of animals 6); Control (24h before) 247
Rattus norvegicus [38] = assay: Number of rats protected at a dose of 30 mg/Kg when given oral at 1 hr upon maximal electroshock seizure; Total number of rats = 4; Absence of activity; type: functional, organism-based
Rattus norvegicus [39] = assay: Number of rats protected at a dose of 30 mg/Kg when given oral at 4 hr upon maximal electroshock seizure; Total number of rats = 4; Absence of activity; type: functional, organism-based
Mus musculus [40] = assay: Post treatment immobility time for CNS study using Porsolt's swimpool test at a dose of 100 mg/Kg after 1 hr when given i.p., in mice (No. of animals 6); Control (24h before) 131
Rattus norvegicus [41] = assay: Number of rats protected at a dose of 30 mg/Kg when given oral at 0.25 hr upon maximal electroshock seizure; Total number of rats = 4; Absence of activity; type: functional, organism-based
Rattus norvegicus [42] = assay: Number of rats protected at a dose of 30 mg/Kg when given oral at 0.5 hr upon maximal electroshock seizure; Total number of rats = 4; Absence of activity; type: functional, organism-based
Rattus norvegicus [43] = assay: Number of rats protected at a dose of 30 mg/Kg when given oral at 2 hr upon maximal electroshock seizure; Total number of rats = 4; Absence of activity; type: functional, organism-based
Mus musculus [44] = assay: Post treatment activity score for CNS study using a actophotometer at a dose of 100 mg/Kg after 1 hr when given i.p., in mice (No. of animals 6); Control (24h before) 201
Mus musculus [45] = assay: Post treatment activity score for CNS study using a actophotometer at a dose of 100 mg/Kg after 0.5 hr when given i.p., in mice (No. of animals 6); Control (24h before) 201
Mus musculus [46] = assay: Post treatment activity score for CNS study using a actophotometer at a dose of 100 mg/Kg after 0.5 hr when given i.p., in mice (No. of animals 6); Control (24h before) 372
Mus musculus [47] = assay: Post treatment activity score for CNS study using a actophotometer at a dose of 100 mg/Kg after 1 h when given i.p., in mice (No. of animals 6); Control (24h before) 372

Compound	NT (Mus musculus [1]) [mg/kg]	MES (Mus musculus [2]) [mg/kg]	Activity (Rattus norvegicus [3])	Activity (Rattus norvegicus [4])	Activity (Rattus norvegicus [5])	PTZ seizure (Mus musculus [6]) [mg/kg]	STY seizure (Mus musculus [7]) [mg/kg]	Activity (Rattus norvegicus [9])	Activity (Rattus norvegicus [10])	MES (Mus musculus [11]) [mg/kg]	STY seizure (Mus musculus [12]) [mg/kg]	further results
Cc1cccc(C)c1NC(=O)/N=N/c1c(O)[nH]c2ccc(Cl)cc12	300	300	1	0	1	300	30	1	1	100	100	Activity (Mus musculus [8]): 263; Activity (Mus musculus [13]): 267
CC/C(C)=N\NC(=O)Nc1c(C)cccc1C		300	4	4	3	300	30	1	3	100	100	TD50 (Rattus norvegicus [14]): > 500 mg/kg; Activity (Mus musculus [15]): 188; SGOT activity (Rattus norvegicus [16]): 79.6 units/mL; Time (Mus musculus [17]): 61 min; PI (Rattus norvegicus [18]): >17.2; ED50 (Rattus norvegicus [19]): 29 mg/kg; SGPT activity (Rattus norvegicus [20]): 49.3 units/mL; Activity (Mus musculus [21]): 199; Activity (Mus musculus [22]): 195
Cc1cccc(C)c1NC(=O)/N=N/c1c(O)[nH]c2ccccc12	300	300	2	1	1		30	2	3	100	100	Activity (Mus musculus [23]): 224; Activity (Mus musculus [24]): 217
CC(=O)C/C(C)=N\NC(=O)Nc1c(C)cccc1C	300	300	4	2	4	300	100	2	4	100	300	TD50 (Rattus norvegicus [25]): > 216 mg/kg; Activity (Mus musculus [26]): 127; PI (Rattus norvegicus [18]): >10.8; NT (Mus musculus [27]): 300 mg/kg; Activity (Mus musculus [28]): 228; ED50 (Rattus norvegicus [29]): 19.8 mg/kg; Activity (Mus musculus [30]): 144
O=C1NC(=O)C(c2ccccc2)(c2ccccc2)N1 [PHENYTOIN]	100	30	4	3	3			1	3	30		TD50 (Rattus norvegicus [25]): > 500 mg/kg; Activity (Mus musculus [31]): 104; PIC seizure (Rattus norvegicus [32]): inactive; SGOT activity (Rattus norvegicus [16]): 84.1 units/mL; PTZ seizure (Rattus norvegicus [33]): inactive; SGPT activity (Rattus norvegicus [20]): 52.6 units/mL; ED50 (Rattus norvegicus [34]): 6.48 mg/kg; NT (Mus musculus [27]): 100 mg/kg; STY seizure (Rattus norvegicus [35]): inactive; TD50 (Rattus norvegicus [36]): 42.8 mg/kg; Activity (Mus musculus [37]): 106
NC(=O)N1c2ccccc2C=Cc2ccccc21 [CARBAMAZEPINE]	100	100				100				30		Activity (Rattus norvegicus [38]): inactive; Activity (Rattus norvegicus [39]): inactive; STY seizure (Rattus norvegicus [35]): inactive; Activity (Mus musculus [40]): 207; Activity (Rattus norvegicus [41]): inactive; Activity (Rattus norvegicus [42]): inactive; Activity (Rattus norvegicus [43]): inactive
Cc1cccc(C)c1NC(=O)/N=N/c1c(O)[nH]c2ccc(Br)cc12	300	300	1	0	2		30	1	0	100	100	Activity (Mus musculus [44]): 176; Activity (Mus musculus [45]): 172
Cc1ccc2[nH]c(O)c(/N=N/C(=O)Nc3c(C)cccc3C)c2c1	300	300	1	3	3	300	30	1	3	100	100	Activity (Mus musculus [46]): 355; Activity (Mus musculus [47]): 368
